Values of other authors, collected in patent US20240010628A1, “METHODS OF MANUFACTURE OF R-MDMA” (Mind Medicine, Inc., priority 2022, published 2024).

What was measured:
[1] = test system: parkinsonian animal model
[2] = in vivo
5-HT2A receptors = 5-HT2A receptors (Homo sapiens, UniProt P28223)
SERT = SERT (Homo sapiens, UniProt P31645)
DAT = DAT (Homo sapiens, UniProt Q01959)
DAT, sequence (Q01959 whole entry, species assumed): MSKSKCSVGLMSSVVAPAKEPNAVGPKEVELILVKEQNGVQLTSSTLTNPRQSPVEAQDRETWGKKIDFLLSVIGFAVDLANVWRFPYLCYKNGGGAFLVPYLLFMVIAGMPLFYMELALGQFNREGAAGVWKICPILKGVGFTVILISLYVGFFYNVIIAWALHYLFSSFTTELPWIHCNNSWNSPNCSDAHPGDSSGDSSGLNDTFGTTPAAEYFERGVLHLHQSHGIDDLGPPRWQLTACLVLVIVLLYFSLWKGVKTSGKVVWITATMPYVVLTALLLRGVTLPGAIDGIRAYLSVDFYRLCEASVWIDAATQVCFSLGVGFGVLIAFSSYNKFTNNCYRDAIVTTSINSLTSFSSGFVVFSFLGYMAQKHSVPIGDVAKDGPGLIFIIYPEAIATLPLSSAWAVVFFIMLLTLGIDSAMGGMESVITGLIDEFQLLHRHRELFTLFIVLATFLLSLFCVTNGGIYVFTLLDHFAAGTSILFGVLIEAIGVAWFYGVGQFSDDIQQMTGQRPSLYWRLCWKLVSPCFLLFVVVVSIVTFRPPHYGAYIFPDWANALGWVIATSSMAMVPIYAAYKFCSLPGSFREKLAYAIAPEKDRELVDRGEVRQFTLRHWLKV

SERT, sequence (P31645 whole entry, species assumed): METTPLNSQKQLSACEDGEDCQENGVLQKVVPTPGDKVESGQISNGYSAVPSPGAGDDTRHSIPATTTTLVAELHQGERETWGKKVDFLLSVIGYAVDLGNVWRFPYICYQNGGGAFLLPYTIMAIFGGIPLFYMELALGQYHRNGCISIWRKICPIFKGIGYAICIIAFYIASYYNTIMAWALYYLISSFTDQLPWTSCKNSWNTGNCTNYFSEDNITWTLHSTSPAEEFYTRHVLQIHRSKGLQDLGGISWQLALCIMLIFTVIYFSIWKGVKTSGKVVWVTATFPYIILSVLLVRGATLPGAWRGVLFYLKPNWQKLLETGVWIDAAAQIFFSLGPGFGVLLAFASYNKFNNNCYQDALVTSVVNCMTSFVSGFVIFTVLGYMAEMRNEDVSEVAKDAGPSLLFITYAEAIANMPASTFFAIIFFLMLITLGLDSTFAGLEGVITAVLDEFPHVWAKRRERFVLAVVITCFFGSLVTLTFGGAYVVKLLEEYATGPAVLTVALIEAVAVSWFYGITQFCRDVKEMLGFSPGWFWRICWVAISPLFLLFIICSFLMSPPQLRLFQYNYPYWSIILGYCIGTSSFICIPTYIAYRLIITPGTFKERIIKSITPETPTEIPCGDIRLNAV
5-HT2A receptors, sequence (P28223 whole entry): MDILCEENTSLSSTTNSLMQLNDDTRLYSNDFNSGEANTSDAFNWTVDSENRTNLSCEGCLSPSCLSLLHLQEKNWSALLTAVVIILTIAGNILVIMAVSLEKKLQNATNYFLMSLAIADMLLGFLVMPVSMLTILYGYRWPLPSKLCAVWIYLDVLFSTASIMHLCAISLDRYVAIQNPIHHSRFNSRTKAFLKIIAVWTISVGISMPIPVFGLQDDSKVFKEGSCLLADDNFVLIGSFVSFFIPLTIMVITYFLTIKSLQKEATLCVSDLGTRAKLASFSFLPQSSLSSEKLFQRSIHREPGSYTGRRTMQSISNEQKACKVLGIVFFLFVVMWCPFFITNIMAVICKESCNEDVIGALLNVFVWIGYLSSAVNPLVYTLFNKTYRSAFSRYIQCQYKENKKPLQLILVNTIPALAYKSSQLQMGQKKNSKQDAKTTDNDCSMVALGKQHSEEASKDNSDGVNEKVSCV

| Compound | severity of peak-dose dyskinesia / dyskinesia [1] | total duration of ON-time [1] | hyperthermia [2] | selectivity for 5-HT2A receptors (5-HT2A receptors) | duration of good ON-time [1] | efficacy as a releaser of dopamine (dopamine) | affinity for SERT (SERT) | affinity for DAT (DAT) |
| --- | --- | --- | --- | --- | --- | --- | --- | --- |
| CNC(C)Cc1ccc2c(c1)OCO2 (racemic) [racemic MDMA, 3,4-Methylenedioxymethamphetamine, reference compound] | reducing dyskinesia | extending ON-time | – | – | – | – | – | – |
| CN[C@H](C)Cc1ccc2c(c1)OCO2 [R-MDMA, (R)-1-(benzo[d][1,3]dioxol-5-yl)-N-methylpropan-2-amine] | decreased | – | does not produce hyperthermia | selective compound for 5-HT2A receptors | increased | low efficacy | – | – |
| CN[C@@H](C)Cc1ccc2c(c1)OCO2 [S-MDMA, (S)-1-(benzo[d][1,3]dioxol-5-yl)-N-methylpropan-2-amine] | exacerbated | extended | – | – | – | – | high affinity | moderate affinity |
